Results reported in patent US20240398752A1 (AJOU UNIVERSITY INDUSTRY-ACADEMIC COOPERATION FOUNDATION, priority 2021, published 2024).

Legend:
in vivo = settings: for clearance: CL; for CL renal: CLR; for half-life: Terminal half-life; for Vd: Vss; for Ae0-24 h: urine 24 hours; for reduction in AUC in the LC-ISN group compared to the LC group: isosakuranetin 15 mg/kg
Procedure: Blood collection was performed at 0, 1, 5, 15, 30, 45, 60, 90, 120, 180, 240, 360, 480, 600, and 720 minutes for intravenous administration of tofacitinib, and at 0, 5, 15, 30, 45, 60, 90, 120, 180, 240, 360, 480, 600, and 720 minutes for oral administration to quantify concentrations of tofacitinib in the plasma. Then, urine was collected for 24 hours to analyze the concentration of tofacitinib excreted in urine as well.

[1] = Procedure: In the experiment, the concentration of tofacitinib was set at 5, 10, 20, 50, 100, 200, and 500 μM, 1 mg of microsomes and nicotinamide adenine dinucleotide phosphate hydrogen-generating system (Corning Inc., Corning, NY, USA) were blended, and the total volume was adjusted to 1 mL with 0.1 M potassium phosphate buffer (pH 7.4), followed by incubation for 15 minutes at a rate of 50 oscillations per minutes in a water-bath (37° C.). The concentration (Km) of tofacitinib when Vmax, the maximum rate of drug metabolism (Vmax), was halved was measured by the Lineweaver-Burk plot. The intrinsic clearance (CLint) of the drug was calculated by dividing Vmax by Km.
[2] = rat, in vivo, iv, 10 mg/kg, tofacitinib 10 mg/kg intravenous, CON rats
[3] = rat, in vivo, iv, 10 mg/kg, tofacitinib 10 mg/kg intravenous, LC rats
[4] = rat, in vivo, iv, 10 mg/kg, tofacitinib 10 mg/kg intravenous, LC-ISN rats
[5] = rat, in vivo, po, 20 mg/kg, tofacitinib 20 mg/kg oral, CON rats
[6] = rat, in vivo, po, 20 mg/kg, tofacitinib 20 mg/kg oral, LC-ISN 15 rats
[7] = rat, in vivo, po, 20 mg/kg, tofacitinib 20 mg/kg oral, LC rats
[8] = tofacitinib 10 mg/kg intravenous
[9] = tofacitinib 10 mg/kg intravenous, CON rats
[10] = tofacitinib 10 mg/kg intravenous, LC rats
[11] = tofacitinib 10 mg/kg intravenous, LC-ISN rats
[12] = tofacitinib 20 mg/kg oral, CON rats
[13] = tofacitinib 20 mg/kg oral, LC rats
[14] = tofacitinib 20 mg/kg oral, LC-ISN 15 rats

C[C@@H]1CCN(C(=O)CC#N)C[C@@H]1N(C)c1ncnc2[nH]ccc12 [tofacitinib]
AUC (in vivo; rat, in vivo, iv, 10 mg/kg, AUC, tofacitinib 10 mg/kg intravenous, CON rats): 7330 ng·h/mL
AUC (in vivo; rat, in vivo, iv, 10 mg/kg, AUC, tofacitinib 10 mg/kg intravenous, LC rats): 18900 ng·h/mL
clearance (in vivo; [2]): 24.1 ± 6.27 mL/min/kg
clearance (in vivo; [3]): 11 ± 2.06 mL/min/kg
clearance (in vivo; [4]): 13.8 ± 1.73 mL/min/kg
CL renal (in vivo; [2]): 3.73 ± 1.09 mL/min/kg
CL renal (in vivo; [3]): 4.65 ± 2.74 mL/min/kg
CL renal (in vivo; [4]): 4.1 ± 1.64 mL/min/kg
half-life (in vivo; rat, in vivo, iv, 10 mg/kg, tofacitinib 10 mg/kg intravenous, CON (control) rats): 35.4 ± 19.2 min
half-life (in vivo; rat, in vivo, iv, 10 mg/kg, tofacitinib 10 mg/kg intravenous, LC rats (liver cirrhosis induced by DMN)): 113 ± 43.7 min
Vd (in vivo; [2]): 0.429 ± 0.253 L/kg
Vd (in vivo; [3]): 0.798 ± 0.177 L/kg
Vd (in vivo; [4]): 0.8 ± 0.326 L/kg
AUC (in vivo; rat, in vivo, po, 20 mg/kg, AUC, tofacitinib 20 mg/kg oral, CON rats): 6400 ng·h/mL
AUC (in vivo; rat, in vivo, po, 20 mg/kg, AUC, tofacitinib 20 mg/kg oral, LC rats): 33800 ng·h/mL
AUC (in vivo; rat, in vivo, po, 20 mg/kg, AUC, tofacitinib 20 mg/kg oral, LC-ISN 15 rats): 20700 ng·h/mL
CL renal (in vivo; [5]): 6.98 ± 2.99 mL/min/kg
CL renal (in vivo; [6]): 5.71 ± 2.47 mL/min/kg
Cmax (in vivo; [5]): 3530 ± 1460 ng/mL
Cmax (in vivo; [7]): 9100 ± 1260 ng/mL
Cmax (in vivo; [6]): 6080 ± 1990 ng/mL
Tmax (in vivo; [5]): 50 min
Tmax (in vivo; [7]): 55.7 min
Tmax (in vivo; [6]): 85.7 min
increase of AUC in the LC group compared to the CON group (in vivo; [8]): 158%
reduction in nonrenal clearance (CLNR) in the LC group compared to the CON group (in vivo; [8]): 69.9%
reduction in total body clearance (CL) in the LC group compared to the CON group (in vivo; [8]): 54.4%
CLNR (in vivo; [9]): 21.1 ± 4.57 mL/min/kg
GI24 h (in vivo; [9]): 0.164 ± 0.102 % of dose
Ae0-24 h (in vivo; [9]): 13.9 ± 2.28 % of dose
CLNR (in vivo; [10]): 6.35 ± 1.27 mL/min/kg
GI24 h (in vivo; [10]): 2.07 ± 2.12 % of dose
Ae0-24 h (in vivo; [10]): 40.2 ± 18.9 % of dose
AUC (in vivo; [11]): 12300 ± 1780 ng·h/mL
CLNR (in vivo; [11]): 9.68 ± 2.40 mL/min/kg
GI24 h (in vivo; [11]): 0.166 ± 0.135 % of dose
Terminal half-life (in vivo; tofacitinib 10 mg/kg intravenous, LC-ISN rats (LC treated with isosakuranetin 15 mg/kg)): 58.2 ± 16.8 min
Ae0-24 h (in vivo; [11]): 30.1 ± 12.3 % of dose
reduction in AUC in the LC-ISN group compared to the LC group (in vivo; [8]): 35.1%
increase of AUC in the LC group compared to the CON group (in vivo; tofacitinib 20 mg/kg oral): 429%
F (in vivo; [12]): 43.6%
GI24 h (in vivo; [12]): 0.106 ± 0.101 % of dose
Ae0-24 h (in vivo; [12]): 11.8 ± 4.08 % of dose
CLR (in vivo; [13]): 3.62 ± 1.78 mL/min/kg
F (in vivo; [13]): 89.5%
GI24 h (in vivo; [13]): 1.73 ± 2.04 % of dose
Ae0-24 h (in vivo; [13]): 35.8 ± 16.9 % of dose
F (in vivo; [14]): 84.1%
GI24 h (in vivo; [14]): 0.340 ± 0.288 % of dose
Ae0-24 h (in vivo; [14]): 35.9 ± 16.8 % of dose
reduction in AUC in the LC-ISN group compared to the LC group (in vivo; tofacitinib 20 mg/kg oral): 38.9%
Km in the three groups (CON, LC, LC-ISN) ([1]; hepatic microsome): No significant difference
decrease of Vmax in the LC group compared to the CON group ([1]; hepatic microsome): 63.4%
increase of Vmax in the LC-ISN group compared to the LC group ([1]; hepatic microsome): 204%
CLint of the LC-ISN group recovered to % of the CON group ([1]; hepatic microsomes): 92.2%
decrease of CLint in the LC group compared to the CON group ([1]; hepatic microsomes): 64.9%
increase of CLint in the LC-ISN group compared to the LC group ([1]; hepatic microsomes): 163%
CLint in the LC group compared to the CON group and the LC-ISN group ([1]; small intestinal microsome): no statistically significant difference
